From patent US9365533B2, “Coumarin derivative” (NIPPON ZOKI PHARMACEUTICAL CO., LTD., priority 2012, dated 2016)

Assays:
[1] = test system: cartilage pieces of bovine metacarpophalangeal joint; test: Suppressive action to cartilage destruction: release of sGAG induced by IL-1α from cartilage pieces; format: cell-based; details: Bos taurus, 96 h; 25 μmol/L test substance, 2 h pretreatment; human recombinant IL-1α 3 ng/mL; 4 days at 37° C.; read-out: sGAG Releasing Suppressive Rate (%)
[2] = test system: HFLS-OA cells; test: Suppressive action to TNF-α-induced proliferation of synovial cells (HFLS-OA), BrdU ELISA; format: cell-based; details: Synovial cell, 120 h; 200 μmol/L test substance; human recombinant TNF-α 10 ng/mL; 5 days; BrdU incorporation increase by TNF-α = 100%; read-out: Synovial Cell Proliferation Rate (%)

Structure (SMILES) | inhibition at 25 µM [1] [%] | activity at 200 µM [2] [%]
O=c1oc2c(OS(=O)(=O)c3ccc(-c4ccccc4)cc3)cccc2cc1NS(=O)(=O)c1ccc(-c2ccccc2)cc1 [Compound 66, 2-Oxo-3-[(4-phenylphenyl]sulfonylamino]chromen-8-yl 4-phenylbenzenesulfonate] | 38 | -37.9
O=c1oc2c(OS(=O)(=O)c3cccc([N+](=O)[O-])c3)cccc2cc1NS(=O)(=O)c1ccc(C(F)(F)F)cc1 [Compound 67, 2-Oxo-3-[[4-(trifluoromethyl)phenyl]sulfonylamino]-chromen-8-yl 3-nitrobenzenesulfonate] | 115 | -38.9
O=c1oc2c(OS(=O)(=O)c3cccc(C(F)(F)F)c3)cccc2cc1NS(=O)(=O)c1ccc(C(F)(F)F)cc1 [Compound 68, 2-Oxo-3-[[4-(trifluoromethyl)phenyl]sulfonylamino]-chromen-8-yl 3-(trifluoromethyl)benzenesulfonate] | 124 | -42.8
O=c1oc2c(OS(=O)(=O)c3ccc(C(F)(F)F)cc3)cccc2cc1NS(=O)(=O)c1cccc([N+](=O)[O-])c1 [Compound 69, 3-[(3-Nitrophenyl)sulfonylamino]-2-oxochromen-8-yl 4-(trifluoromethyl)benzenesulfonate] | 126 | -40.6
O=c1oc2c(OS(=O)(=O)c3ccc(C(F)(F)F)cc3)cccc2cc1NS(=O)(=O)c1ccc(-c2ccccc2)cc1 [Compound 70, 2-Oxo-3-[(4-phenylphenyl)sulfonylamino]chromen-8-yl 4-(trifluoromethyl)benzenesulfonate] | 103 | -39
